How the values were obtained:
Assay type in all cases: cell-based, human
[1] = tested on: Immortalized fibroblasts from a CMD patient; experiment: Laminin binding, immortalized fibroblasts from a CMD patient (FIG. 5); conditions: dose response curve
Method: FIG. 5. […] A dose response curve for Givinostat was prepared measuring laminin staining intensity at various concentrations of the compound. Laminin was labeled with rabbit anti-laminin antibodies. Nuclei are stained with DAPI. Fibroblasts obtained from a muscular dystrophy patient were seeded at 3000 cells per well in 384-well plates and treated in duplicate at 10 μm with individual compounds from the drug/nutraceutical library. After 48 hours in culture conditions, the cells were exposed to serum free media containing 0.1% BSA and 10 ug/ml laminin from Engelbreth-Holm-Swarm murine sarcoma basement membrane for a period of 2 hours. Cells were then fixed with 4% paraformaldehyde and stained with DAPI and a laminin-specific antibody, followed by a fluorescently labeled secondary antibody directed against the laminin specific antibody. The plates were then scanned using an Opera high content confocal microscopy screening system (PerkinElmer) at 20× magnification with separate fluorescent exposures, utilizing a UV light source and a 561 nm laser. Image analysis was performed to quantify levels of laminin staining using a customized algorithm written with Acapella software (Perkin Elmer). The cytoplasm was defined using DAPI staining as a mask, and the average cytoplasmic intensity of fluorescence per cell was calculated on the basis of at least six random fields captured per well.

[2] = tested on: Fibroblasts obtained from a muscular dystrophy patient; experiment: Laminin binding assay (high content screen) in fibroblasts from a muscular dystrophy patient; conditions: for hit in the laminin binding screen (normalizes fibroblast laminin binding; at least 20% activity compared with controls): 10 μm, duplicate, 48 hours, 384-well plates, anti-laminin staining
Method: (§1) Fibroblasts obtained from a muscular dystrophy patient were seeded at 3000 cells per well in 384-well plates and treated in duplicate at 10 μm with individual compounds from the drug/nutraceutical library. After 48 hours in culture conditions, the cells were exposed to serum free media containing 0.1% BSA and 10 ug/ml laminin from Engelbreth-Holm-Swarm murine sarcoma basement membrane for a period of 2 hours. Cells were then fixed with 4% paraformaldehyde and stained with DAPI and a laminin-specific antibody, followed by a fluorescently labeled secondary antibody directed against the laminin specific antibody. The plates were then scanned using an Opera high content confocal microscopy screening system (PerkinElmer) at 20× magnification with separate fluorescent exposures, utilizing a UV light source and a 561 nm laser.
(§2) Image analysis was performed to quantify levels of laminin staining using a customized algorithm written with Acapella software (Perkin Elmer). The cytoplasm was defined using DAPI staining as a mask, and the average cytoplasmic intensity of fluorescence per cell was calculated on the basis of at least six random fields captured per well.
A compound in the drug/nutraceutical library was considered to normalize the level of fibroblast laminin binding if the compound scored at least 20% activity compared with controls. Fibroblasts from a healthy individual, or from patient cells treated with Trichostatin A at 2 uM were used as positive controls.
Trichostatin A, SAHA, and Givinostat (another HDAC inhibitor in the same class as Trichostatin A and SAHA) were further tested in an eight-point dose-response assay (at a range of 20-0.02 μm, at three fold dilutions) in triplicate.

[3] = tested on: fibroblasts from the CMD-FKRP patient; experiment: Laminin binding, fibroblasts from FKRP deficient patients (FIG. 6, FIG. 9)
Excerpt: FIG. 6. Fibroblasts were obtained from CMD patients with either low (CMD-FKRP) laminin binding, mid-range laminin binding (LGMD/CMD-FKRP), or closer to normal (LGMD-FKRP) laminin binding. […] Laminin was labeled with rabbit anti-laminin antibodies. Nuclei are stained with DAPI.
(§3) FIG. 9. Fibroblasts were taken from an FKRP deficient CMD patient and a POMT1 deficient CMD patient. […] Laminin is labeled with rabbit anti-laminin antibodies. Nuclei are stained with DAPI.
Fibroblasts obtained from a muscular dystrophy patient were seeded at 3000 cells per well in 384-well plates and treated in duplicate at 10 μm with individual compounds from the drug/nutraceutical library. After 48 hours in culture conditions, the cells were exposed to serum free media containing 0.1% BSA and 10 ug/ml laminin from Engelbreth-Holm-Swarm murine sarcoma basement membrane for a period of 2 hours. […]
as §2

[4] = tested on: fibroblasts from the CMD-POMT1 patient; experiment: Laminin binding, fibroblasts from a POMT1 deficient CMD patient (FIG. 9)
Method: as §3, §1, §2

Compound | levels of laminin binding (laminin staining intensity) [1] | hit in the laminin binding screen (normalizes fibroblast laminin binding; at least 20% activity compared with controls) [2] | laminin binding of patient's fibroblasts after treatment ([2]; fibroblasts from a CMD-affected patient, compared with unaffected sibling, rabbit anti-laminin antibodies, FIG. 4) | laminin binding ([3]; fibroblasts from the CMD-FKRP patient, FIG. 9) | laminin binding ([3]; fibroblasts with low (CMD-FKRP), mid-range (LGMD/CMD-FKRP) or closer to normal (LGMD-FKRP) laminin binding, FIG. 6) | laminin binding [4]
CCN(CC)Cc1ccc2cc(COC(=O)Nc3ccc(C(=O)NO)cc3)ccc2c1 [Givinostat] | increased levels of laminin binding |  |  |  |  | 
O=C(CCCCCCC(=O)Nc1ccccc1)NO [SAHA] |  | identified as hits | normalized to the levels of the patient's unaffected sibling |  |  | 
CC(/C=C/C(=O)NO)=C\[C@@H](C)C(=O)c1ccc(N(C)C)cc1 [Trichostatin A] |  | identified as hits |  | increased laminin binding | increased laminin binding | did not result in visibly increased laminin binding

From patent US10161929B2, “Theranostics platform and methods of use” (Sanford Burnham Prebys Medical Discovery Institute, priority 2012, dated 2018)
